Each structure is given as a SMILES string. Where “and” joins values, the source holds several entries; their conditions need not be identical. Equal entries are not always repeated. Where two headings read alike, the source gives them in different places.

Data set [1] deals with T1, hH3R (Homo sapiens, UniProt Q9Y5N1).
T1 construct: expressed in transfected cells; host or cells: HEK-293 cells stably expressing hH3R
Nature of the data set: hH3R radioligand displacement assay ([3H]Nα-methylhistamine, HEK-293-hH3R membranes). Format: binding. How it is done:
Radioligand displacement assays were performed on the membrane fractions of HEK-293 cells stably expressing hH3R455, which occurs mainly in the brain, as described previously with slight modifications. HEK-293-hH3R cells were grown in Dulbecco’s Modified Eagle Medium (DMEM) supplemented with 10% FBS, 100 µg/mL penicillin, 100 units/mL streptomycin, and 10 mM HEPES solution at 37 °C in a humidified atmosphere of 5% CO2. To prepare membrane fractions, cells were washed in a phosphate-buffered saline (PBS) solution and harvested. The cells were centrifuged at 3000× g for 10 min at 4 °C and homogenized with Ultraturrax® in ice-cold binding buffer (75 mM Tris-HCl, 10 mM MgCl2, 100 mM NaCl, pH 7.4). The homogenate was centrifuged twice (20,000× g, 20 min, 4 °C) and reconstituted in an ice-cold binding buffer. Test ligands, radiolabeled ligands, and membrane fractions (20 µg/well) were added to 96-well plates to a final assay volume of 200 µL. After 90 min of incubation with shaking at 25 °C, a cell harvester was used to separate bound from free ligands by filtration through GF/B filters pretreated with 0.3% (m/v) polyethylenimine. Radioactivity was determined by liquid scintillation counting. […] The test ligands were evaluated at concentrations between 100 µM and 0.03 nM. […] Specific binding was calculated by subtracting non-specific binding from the raw data. Data were obtained in duplicate from at least three independent experiments and analyzed using GraphPad Prism 7.02. using a nonlinear regression. The Cheng–Prusoff equation was used to calculate Ki values from the IC50 values. Mean values and 95% confidence intervals were calculated using −log(Ki) and converted to nanomolar concentrations.
S4. hH3R Radioligand Displacement Assay
Radioligand displacement assays were performed on the membrane fractions of HEK-293 cells stably expressing hH3R. Cultivation of hH3R-HEK-293 cells and membrane preparation was performed as described previously. [3H]Nα-Methylhistamine was used as the radiolabeled probe at a final […]
-log(Ki) was used to calculate mean values and 95% confidence intervals.
Figure S13. hH3R competition binding curve of compounds 6a
Figure S14. hH3R competition binding curve of compounds 6b […]

The nature of data set [2]: Oxygen radical absorbance capacity (ORAC-FL) assay. Particulars: mean Trolox equivalents with SEM, at least three independent experiments, 37 °C. The procedure: Antioxidant properties were analyzed using an oxygen radical absorbance capacity (ORAC) assay at 37 °C [27]. Solutions of the fluorescent probe fluorescein at 100 nM and test ligands at concentrations between 20 µM and 6.25 µM were incubated for 15 min in potassium phosphate buffer (75 mM, pH 7.4) protected from light in black 96-well plates at 37 °C. Then, 2,2′-azobis (2-amidinopropane) dihydrochloride (AAPH) was added as a peroxyl radical generator. The fluorescence intensity ([…]) was measured every minute for 90 min. 6-Hydroxy-2,5,7,8-tetramethylchroman-2-carboxylic acid (Trolox) was used as a standard at concentrations between 20 µM and 6.25 µM. Data were obtained in duplicate from at least three independent experiments and evaluated using GraphPad Prism 7.02. Fluorescence intensity was normalized to that of the blank (without AAPH). The area under the fluorescence decay curve for each antioxidant (AUCantioxidant) and for the negative control without antioxidants (AUCnegative control) were calculated for each concentration by summing the fluorescence intensities at each time point. AUCnegative control was subtracted from the AUCantioxidant to calculate the net AUC. Linear regression of the net AUC against the corresponding antioxidant concentration was performed. The ratios of the antioxidant and Trolox slopes from the same experiment were calculated. Thus, ORAC values were expressed as Trolox equivalents [TE], and caffeic acid was used as a reference.

A short description of data set [3]: Cytotoxic effects on SH-SY5Y cells after 24 h (alamar blue viability assay). The data set is classed as cell-based. As to conditions: human, SH-SY5Y neuroblastoma cells, 24 h, 95% confidence interval, at least three independent experiments, read-out: LC50. How it is done:
(§1) The cytotoxic effects of the tested ligands on neuroblastoma SH-SY5Y cells were determined using the alamar blue viability assay. SH-SY5Y cells were grown in Minimum Essential Medium Eagle (MEME) supplemented with non-essential amino acids, 10% FBS, 100 µg/mL penicillin, 100 units/mL streptomycin, and 2 mM L-glutamine at 37 °C in a humidified atmosphere of 5% CO2. SH-SY5Y cells were seeded in 96-well plates at a density of 8.0 × 10^3 cells per well and grown at 37 °C in a humidified atmosphere of 5% CO2. 24 h after seeding, the test ligands were added at concentrations between 30 µM and 1 nM in a final assay volume of 100 µL per well and incubated for 24 h. Cells treated with 1-methyl-4-phenylpyridinium iodide (MPP+) served as a positive control for cytotoxic effects. The concentration of DMSO was limited to 1% for all the assay points. The medium supplemented with the test compounds was discarded, and 100 µL of resazurin solution in RPMI-1640 medium (44 µM) was added. After two hours of incubation at 37 °C in a humidified atmosphere of 5% CO2, fluorescence intensity ([…]) was determined. Data were obtained in duplicate from at least three independent experiments. LC50 values were evaluated using GraphPad Prism 7.02. using a nonlinear regression. Mean values and 95% confidence intervals were calculated using −log(Ki) and converted to nanomolar concentrations.

The subject of another data set is SH-SY5Y cells. Described as above. Format: cell-based. As to conditions: for effects on cell viability: concentrations below 1 µM. The procedure: as §1
Data set [4] deals with T1, hH3R. As to conditions: cited from earlier work.
[5] abbreviates: Table 2, from Ki, read-out: pKi (converted).
[6] abbreviates: [3H]Nα-methylhistamine displacement on HEK-293-hH3R membranes, 95% confidence interval, at least three independent experiments, read-out: hH3R Ki.

T1 sequence (Q9Y5N1 whole entry): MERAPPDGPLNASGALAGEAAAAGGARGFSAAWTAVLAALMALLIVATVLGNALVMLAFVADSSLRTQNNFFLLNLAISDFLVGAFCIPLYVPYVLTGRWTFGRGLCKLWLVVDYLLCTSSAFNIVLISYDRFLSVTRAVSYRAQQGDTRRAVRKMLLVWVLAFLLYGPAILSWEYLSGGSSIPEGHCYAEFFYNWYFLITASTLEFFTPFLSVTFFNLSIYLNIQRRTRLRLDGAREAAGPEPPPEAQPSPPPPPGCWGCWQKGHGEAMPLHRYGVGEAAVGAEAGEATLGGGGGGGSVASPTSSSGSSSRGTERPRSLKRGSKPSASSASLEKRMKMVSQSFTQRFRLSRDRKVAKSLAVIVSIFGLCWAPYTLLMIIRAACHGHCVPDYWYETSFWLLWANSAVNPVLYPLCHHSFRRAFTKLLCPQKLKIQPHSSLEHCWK

As to `c1ccc([P+](CCCCOc2ccc(OCCCN3CCCCC3)cc2)(c2ccccc2)c2ccccc2)cc1` [Compound 6a], the Ki on hH3R [1] (setting [5]) and on hH3R [1] (setting [6]) was 32 nM each time. Further, the ORAC in data set [2] was found to be 1.04 ± 0.03 TE. In addition, in data set [3], the CC50 at 24 h is 40000 nM. In addition, the “effects on cell viability” value with SH-SY5Y cells is listed as “no significant effects on cell viability”.
With `CCNC(=O)[C@H]1C[C@@](F)(c2ccc(CN3CCCC3)c(F)c2)C1` [PF-03654746], the Ki on hH3R [4] (Table 2, co-crystallized ligand of 7F61, read-out: Ki) is 3.2 nM.
As to `c1ccc([P+](CCCCCCCCCOc2ccc(OCCCN3CCCCC3)cc2)(c2ccccc2)c2ccccc2)cc1` [Compound 6e, Triphenyltriphenyl-(9-(4-(3-(piperidin-1-yl)propoxy)phenoxy)nonyl)phosphonium bromide], the Ki on hH3R [1] (setting [5]) and on hH3R [1] (setting [6]) was 14.1 nM in each case. Besides, in data set [2], the ORAC amounted to 1.07 ± 0.06 TE. In addition, the CC50 at 24 h in data set [3] was < 1000 nM. Moreover, the CC50 with SH-SY5Y cells (24 h, 95% confidence interval, at least three independent experiments, read-out: LC50 (the source's name)) came out at 910 nM.
Consider `[Br-].c1ccc([P+](CCCCCOc2ccc(OCCCN3CCCCC3)cc2)(c2ccccc2)c2ccccc2)cc1` [Compound 6b, Triphenyl-(5-(4-(3-(piperidin-1-yl)propoxy)phenoxy)pentyl)phosphonium bromide], for which the Ki at hH3R [1] (setting [5]) and on hH3R [1] (setting [6]) was 17.6 nM throughout. Besides, the ORAC in data set [2] worked out at 0.70 ± 0.01 TE. In addition, the CC50 at 24 h in data set [3] was determined as 21800 nM. The “effects on cell viability” value with SH-SY5Y cells is given as “no significant effects on cell viability”.
Regarding `c1ccc([P+](CCCCCCCCOc2ccc(OCCCN3CCCCC3)cc2)(c2ccccc2)c2ccccc2)cc1` [Compound 6d, Triphenyltriphenyl-(8-(4-(3-(piperidin-1-yl)propoxy)phenoxy)octyl)phosphonium bromide], the Ki at hH3R [1] (setting [5]) and at hH3R [1] (setting [6]) was 20.4 nM throughout. Moreover, in data set [2], the ORAC worked out at 0.89 ± 0.16 TE. For the same compound, the CC50 at 24 h in data set [3] amounted to 2690 nM.
Take `CN1CCc2ccc(OCCCN3CCCCC3)cc2C1=O` [Compound I]: at hH3R [4] (Figure 1, read-out: hH3R Ki), the Ki was 23 nM.
For the compound `CNCCc1cnc[nH]1` [[^3H]N^α-methylhistamine, reference compound], the Kd on hH3R [1] (probe used at a final concentration of 2 nM, read-out: Kd of the radiolabeled probe) turned out to be 3.08 nM.
Turning to `O=C(O)/C=C/c1ccc(O)c(O)c1` [Caffeic acid, reference compound], the ORAC in data set [2] was found to be 3.08 ± 0.13 TE.
On to `c1ccc([P+](CCCCCCCCCCOc2ccc(OCCCN3CCCCC3)cc2)(c2ccccc2)c2ccccc2)cc1` [Compound 6f, Triphenyltriphenyl-(10-(4-(3-(piperidin-1-yl)propoxy)phenoxy)decyl)phosphonium bromide], for which the Ki was 67.4 nM at hH3R [1] (Table 2, biological activity repeated next to the IFD results, read-out: Ki) and 67.4 nM on hH3R [1] (setting [6]). The ORAC in data set [2] is listed as 0.59 ± 0.06 TE. Further, the CC50 at 24 h in data set [3] was found to be 2610 nM.
`c1ccc([P+](CCCCCCOc2ccc(OCCCN3CCCCC3)cc2)(c2ccccc2)c2ccccc2)cc1` [Compound 6c, Triphenyltriphenyl-(6-(4-(3-(piperidin-1-yl)propoxy)phenoxy)hexyl)phosphonium bromide]: the Ki on hH3R [1] (setting [5]) and on hH3R [1] (setting [6]) was 31.5 nM in each case. Also, the ORAC in data set [2] is 0.54 TE and 0.54 ± 0.03 TE. The CC50 at 24 h in data set [3] was 11200 nM.

The values above are taken from paper PMC11591188, “First Report on Cationic Triphenylphosphonium Compounds as Mitochondriotropic H3R Ligands with Antioxidant Properties” (Antioxidants, 2024).
